{"source": "patent US20250345440A1", "about": "“METAL-ORGANIC FRAMEWORK MATERIALS AND USES OF THE METAL-ORGANIC FRAMEWORK MATERIALS” (MOF Science, LLC, priority 2024, published 2025)", "test": "Second study: NAD in tissues, oral (pegylated)NAD-Mg-GA vs injectable NAD", "assay_type": "in vivo", "settings": "group 2 (IP injectable NAD) vs group 1 (oral (pegylated)NAD-Mg-GA), healthy rats"}
{"compound": "NC(=O)c1ccc[n+]([C@@H]2O[C@H](COP(=O)([O-])OP(=O)(O)OC[C@H]3O[C@@H](n4cnc5c(N)ncnc54)[C@H](O)[C@@H]3O)[C@@H](O)[C@H]2O)c1", "note": "[injectable NAD, Nicotinamide Adenine Dinucleotide]", "values": [{"measurement": "More NAD levels in the heart compared to group 1", "result": 11, "unit": "%"}]}
